Numbers after ± are expanded uncertainties.
Test: molar heat capacity at constant pressure
Details: 101.33 kPa

OC[C@@H](O)[C@@H](O)[C@H](O)[C@H](O)CO [D-mannitol]
molar heat capacity at constant pressure [J/K/mol]
Details	Small sample (50 mg) DSC	relaxation calorimetry
289.15 K, Crystal	223.23 ± 36	–
290 K, Crystal	–	224.45 ± 14
290.15 K, Crystal	223.75 ± 36	–
291.15 K, Crystal	224.51 ± 36	–
292.15 K, Crystal	225.52 ± 36	–
292.3 K, Crystal	–	226.18 ± 9.2
293.15 K, Crystal	226.11 ± 36	–
294.15 K, Crystal	226.79 ± 36	–
295.15 K, Crystal	227.7 ± 37	–
296.15 K, Crystal	228.45 ± 37	–
297.15 K, Crystal	229.12 ± 37	–
298.15 K, Crystal	229.81 ± 37	230.54 ± 14
299.15 K, Crystal	230.64 ± 37	–
300 K, Crystal	–	231.93 ± 14
300.15 K, Crystal	231.67 ± 37	–
301.15 K, Crystal	232.46 ± 37	–
302.15 K, Crystal	233.28 ± 37	–
302.32 K, Crystal	–	233.27 ± 9.5
303.15 K, Crystal	234.21 ± 38	–
304.15 K, Crystal	235.1 ± 38	–
305 K, Crystal	236.23 ± 38	–
305.15 K, Crystal	236.24 ± 38	–
306.15 K, Crystal	237.06 ± 38	–
307.15 K, Crystal	238.05 ± 38	–
308.15 K, Crystal	239.43 ± 38	–
309.15 K, Crystal	240.22 ± 39	–
310 K, Crystal	241.08 ± 39	–
310.15 K, Crystal	241.1 ± 39	–
311.15 K, Crystal	242.22 ± 39	–
312.15 K, Crystal	243.21 ± 39	–
313.15 K, Crystal	244.03 ± 39	–
314.15 K, Crystal	244.96 ± 39	–
315 K, Crystal	245.72 ± 39	–
315.15 K, Crystal	245.76 ± 39	–
316.15 K, Crystal	246.45 ± 40	–
317.15 K, Crystal	247.23 ± 40	–
318.15 K, Crystal	248.19 ± 40	–
319.15 K, Crystal	249.13 ± 40	–
320 K, Crystal	250.2 ± 40	–
320.15 K, Crystal	250.01 ± 40	–
321.15 K, Crystal	250.96 ± 40	–
322.15 K, Crystal	251.62 ± 40	–
323.15 K, Crystal	252.78 ± 41	–
324.15 K, Crystal	253.84 ± 41	–
325 K, Crystal	254.58 ± 41	–
325.15 K, Crystal	254.69 ± 41	–
326.15 K, Crystal	255.76 ± 41	–
327.15 K, Crystal	256.67 ± 41	–
328.15 K, Crystal	257.61 ± 41	–
329.15 K, Crystal	258.51 ± 42	–
330 K, Crystal	258.9 ± 42	–
330.15 K, Crystal	259.36 ± 42	–
331.15 K, Crystal	260.09 ± 42	–
332.15 K, Crystal	260.73 ± 42	–
333.15 K, Crystal	261.83 ± 42	–
334.15 K, Crystal	262.7 ± 42	–
335 K, Crystal	263.16 ± 42	–
335.15 K, Crystal	263.13 ± 42	–
336.15 K, Crystal	263.97 ± 42	–
337.15 K, Crystal	264.87 ± 43	–
338.15 K, Crystal	265.55 ± 43	–
339.15 K, Crystal	266.62 ± 43	–
340 K, Crystal	267.39 ± 43	–
340.15 K, Crystal	267.34 ± 43	–
341.15 K, Crystal	268.11 ± 43	–
342.15 K, Crystal	269.07 ± 43	–
343.15 K, Crystal	270.04 ± 43	–
344.15 K, Crystal	271.03 ± 44	–
345 K, Crystal	271.57 ± 44	–
345.15 K, Crystal	272.18 ± 44	–
346.15 K, Crystal	272.93 ± 44	–
347.15 K, Crystal	273.5 ± 44	–
348.15 K, Crystal	274.48 ± 44	–
349.15 K, Crystal	275.36 ± 44	–
350 K, Crystal	275.71 ± 44	–
350.15 K, Crystal	275.83 ± 44	–
351.15 K, Crystal	276.6 ± 44	–
352.15 K, Crystal	277.59 ± 45	–
353.15 K, Crystal	278.11 ± 45	–
354.15 K, Crystal	278.88 ± 45	–
355 K, Crystal	279.8 ± 45	–
355.15 K, Crystal	279.75 ± 45	–
356.15 K, Crystal	280.45 ± 45	–
357.15 K, Crystal	281.3 ± 45	–
358.15 K, Crystal	282.01 ± 45	–
359.15 K, Crystal	282.77 ± 45	–
360 K, Crystal	283.81 ± 46	–
360.15 K, Crystal	283.45 ± 46	–
361.15 K, Crystal	284.29 ± 46	–
362.15 K, Crystal	285.29 ± 46	–
363.15 K, Crystal	285.81 ± 46	–
364.15 K, Crystal	286.87 ± 46	–
365 K, Crystal	287.75 ± 46	–
365.15 K, Crystal	287.69 ± 46	–
366.15 K, Crystal	288.42 ± 46	–
367.15 K, Crystal	289.35 ± 46	–
368.15 K, Crystal	290.07 ± 47	–
369.15 K, Crystal	290.83 ± 47	–
370 K, Crystal	291.59 ± 47	–
370.15 K, Crystal	291.54 ± 47	–
371.15 K, Crystal	292.39 ± 47	–
372.15 K, Crystal	293.2 ± 47	–
373.15 K, Crystal	293.84 ± 47	–
374.15 K, Crystal	294.5 ± 47	–
375 K, Crystal	295.33 ± 47	–
375.15 K, Crystal	295.14 ± 47	–
376.15 K, Crystal	295.96 ± 48	–
377.15 K, Crystal	296.71 ± 48	–
378.15 K, Crystal	297.3 ± 48	–
379.15 K, Crystal	297.95 ± 48	–
380 K, Crystal	298.96 ± 48	–
380.15 K, Crystal	298.84 ± 48	–
381.15 K, Crystal	299.49 ± 48	–
382.15 K, Crystal	300.09 ± 48	–
383.15 K, Crystal	300.96 ± 48	–
384.15 K, Crystal	301.85 ± 48	–
385 K, Crystal	302.49 ± 49	–
385.15 K, Crystal	302.62 ± 49	–
386.15 K, Crystal	303.19 ± 49	–
387.15 K, Crystal	303.89 ± 49	–
388.15 K, Crystal	304.75 ± 49	–
389.15 K, Crystal	305.62 ± 49	–
390 K, Crystal	305.94 ± 49	–
390.15 K, Crystal	306.4 ± 49	–
391.15 K, Crystal	307.13 ± 49	–
392.15 K, Crystal	307.69 ± 49	–
393.15 K, Crystal	308.43 ± 50	–
394.15 K, Crystal	309.27 ± 50	–
395 K, Crystal	309.33 ± 50	–
395.15 K, Crystal	309.91 ± 50	–
396.15 K, Crystal	310.41 ± 50	–
397.15 K, Crystal	311.05 ± 50	–
398.15 K, Crystal	311.45 ± 50	–
399.15 K, Crystal	312.11 ± 50	–
400 K, Crystal	312.71 ± 50	–
400.15 K, Crystal	312.88 ± 50	–
401.15 K, Crystal	313.5 ± 50	–
402.15 K, Crystal	314.14 ± 50	–
403.15 K, Crystal	315.02 ± 51	–
404.15 K, Crystal	315.76 ± 51	–
405 K, Crystal	316.13 ± 51	–
405.15 K, Crystal	316.19 ± 51	–
406.15 K, Crystal	317 ± 51	–
407.15 K, Crystal	317.55 ± 51	–
408.15 K, Crystal	318.33 ± 51	–
409.15 K, Crystal	319.11 ± 51	–
410 K, Crystal	319.66 ± 51	–
410.15 K, Crystal	319.62 ± 51	–
411.15 K, Crystal	320.34 ± 51	–
412.15 K, Crystal	321.09 ± 52	–
413.15 K, Crystal	321.71 ± 52	–
414.15 K, Crystal	322.33 ± 52	–
415 K, Crystal	323.4 ± 52	–
415.15 K, Crystal	323.11 ± 52	–
416.15 K, Crystal	323.76 ± 52	–
417.15 K, Crystal	324.47 ± 52	–
418.15 K, Crystal	325.49 ± 52	–
419.15 K, Crystal	326.12 ± 52	–
420 K, Crystal	327.48 ± 53	–
420.15 K, Crystal	327.06 ± 53	–
421.15 K, Crystal	327.89 ± 53	–
422.15 K, Crystal	328.71 ± 53	–
423.15 K, Crystal	329.87 ± 53	–
424.15 K, Crystal	330.92 ± 53	–
425 K, Crystal	332.03 ± 53	–
425.15 K, Crystal	332.36 ± 53	–
458.15 K, Liquid	511.69 ± 82	–
459.15 K, Liquid	511.2 ± 82	–
460 K, Liquid	511.26 ± 82	–
460.15 K, Liquid	510.98 ± 82	–
461.15 K, Liquid	510.64 ± 82	–
462.15 K, Liquid	510.47 ± 82	–
463.15 K, Liquid	510.51 ± 82	–
464.15 K, Liquid	510.42 ± 82	–
465 K, Liquid	511.16 ± 82	–
465.15 K, Liquid	510.6 ± 82	–
466.15 K, Liquid	510.6 ± 82	–
467.15 K, Liquid	510.56 ± 82	–
468.15 K, Liquid	510.86 ± 82	–
469.15 K, Liquid	511.11 ± 82	–
470 K, Liquid	511.05 ± 82	–
470.15 K, Liquid	511.08 ± 82	–
471.15 K, Liquid	511.49 ± 82	–
472.15 K, Liquid	511.38 ± 82	–
473.15 K, Liquid	511.18 ± 82	–
474.15 K, Liquid	511.09 ± 82	–
475 K, Liquid	510.95 ± 82	–
475.15 K, Liquid	510.93 ± 82	–
476.15 K, Liquid	510.9 ± 82	–
477.15 K, Liquid	510.87 ± 82	–
478.15 K, Liquid	510.67 ± 82	–
479.15 K, Liquid	510.62 ± 82	–
480 K, Liquid	510.84 ± 82	–
480.15 K, Liquid	510.66 ± 82	–
481.15 K, Liquid	510.52 ± 82	–
482.15 K, Liquid	510.71 ± 82	–
483.15 K, Liquid	510.62 ± 82	–
484.15 K, Liquid	510.5 ± 82	–
485 K, Liquid	510.74 ± 82	–
485.15 K, Liquid	510.63 ± 82	–
486.15 K, Liquid	510.59 ± 82	–
487.15 K, Liquid	510.6 ± 82	–
488.15 K, Liquid	510.74 ± 82	–
490 K, Liquid	510.64 ± 82	–
